# Measurements published in US20200352889A1, “CYSTATHIONINE COMPOSITIONS AND METHODS OF TREATMENT FOR HEALTH CONDITIONS” (THE REGENTS OF THE UNIVERSITY OF COLORADO, A BODY CORPORATE, priority 2011, published 2020).
# What was measured:
# Grp78, Grp94, GADD153 = assay: Northern and Western blotting of UPR induction in 293AD cells; assay type: cell-based, human
# Experimental: To further assess the effect of cystathionine upon induction of the UPR and GADD153 by ER stress Northern and Western blotting experiments were performed.
# Immunoblot analysis of total cell lysates was performed as described previously (4,14). Briefly, following incubation with the appropriate primary and horseradish peroxidase-conjugated secondary antibodies (Affinity Biologicals, Ancaster, ON, Canada) membranes were developed using the Renaissance® Western Blot Chemiluminescence Reagent Kit, (Perkin Elmer, Woodbridge, ON, Canada). Proteins were transferred on a nitrocellulose membrane, and probed with anti-KDEL monoclonal antibody, which recognizes Hsp70, GRP78 and GRP94 that was purchased from Stressgen Biotechnologies (SPA-827) or anti GADD153 (Santa Cruz Biotech #SC-7351). Anti-β-Actin monoclonal antibody (Sigma) was used as a loading control.
# Total RNA was isolated from 293AD cells using the RNeasy® total RNA kit (Qiagen, Santa Clarita, Calif.) and resuspended in diethylpyrocarbonate (DEPC)-treated water. Quantification and purity of the RNA was assessed by A260/A280 absorption, and RNA samples with ratios greater than 1.6 were stored at […] for further analysis. Total RNA (10 μg/lane) was fractionated on 2.2 mol/L formaldehyde/1.2% agarose gels and transferred overnight onto Zeta-Probe® GT nylon membranes (Bio-Rad, Toronto, Canada) in 10×SSC. The RNA was cross-linked to the membrane using a UV crosslinker (PDI Bioscience, Toronto, Canada) before hybridization. Specific probes were generated by labeling cDNA fragments with [−32P]dCTP (NEN) using a random primed DNA labeling kit (Boehringer Mannheim, Laval, Canada). The cDNA probe for GADD153 (no. AA627477) was obtained from Genome Systems (St Louis, Mo.). The cDNA probe used for GRP78 is a full length cDNA clone that has been described previously (4). After overnight hybridization at 43° C., the membranes were washed as described by the manufacturer, exposed to x-ray film, and subjected to autoradiography.
# [1] = system: WT mice treated with thapsagargin; assay: Thapsagargin-induced acute tubular necrosis in WT mice in the presence and absence of PPG; assay type: in vivo, mouse; conditions: single IP thapsagargin + daily PPG, three days
# Text: (§1) Wild type mice (WT; n=6) to a single sub-lethal intraperitoneal injection of thapsagargin in the presence and absence of the CGL inactivating compound propargylglycine (PPG). WT mice were randomly assigned to one of four treatment groups (n=6 for each group): 1). control, IP injected with PBS (See FIG. 13, Panel A); 2). I.P. injection with PPG (See FIG. 13, Panel B); 3). single I.P […] thapsagargin (See FIG. 13, Panel C); and 4). thapsagargin+PPG (See FIG. 13, Panel D). In groups 2 and 4, PPG treatment was maintained by daily injection until sacrifice at three days post vehicle/thapsagargin injection. After the completion of this treatment regime, all mice were anaesthetized (isoflourane/oxygen) and sacrificed by decapitation.
# as §1, with “(See” for “(See FIG. 13,”, “After the completion of this treatment regime, all mice were anaesthetized (isoflourane/oxygen) and sacrificed by decapitation.” left out
# [2] = system: KDEL containing chaperones and GADD153; assay: Immunohistochemical analysis of unfolded protein response in liver and kidney; assay type: in vivo, mouse
# Experimental: While it is not necessary to understand the mechanism of action, it is believed cystathionine may protect against ER stress induced cell injury by increasing the induction of molecular chaperones like Grp78 or by inhibiting the induction of GADD153. In order to investigate the mechanism by which cystathionine is protecting against ER stress induced tissue injury, an immunohistochemical analysis of liver and kidney tissues samples from the experimental groups described above was performed. […] Strong induction of KDEL containing proteins and GADD153 by tunicamycin treatment in both liver and kidneys of the tunicamycin groups was observed (FIG. 8, Panel B).
# Prolonged perturbation of the ER is a powerful inducer of the C/EBP family member GADD153 (also known as CHOP) that plays a key role in the induction of programmed cell death by ER stress (10). Previous work has shown that GRP78 over-expression in Chinese hamster ovary cells attenuates both the ER stress-signal and the cell death that is observed in response to calcium ionophores (22) and blocking the expression of GRP78 by means of antisense constructs increase the lethality of agents that promote ER stress (23). Within this context, it is conceivable that cystathionine could protect against ER stress induced cell injury by increasing the induction of molecular chaperones like Grp78 or by inhibiting the induction of GADD153. […]
smiles,measurement,setting,value
"C#CCC(N)C(=O)O (racemic) [PPG, D,L-2-amino-4-pentynoic acid]","expression of Grp78, Grp94 and GADD15 in control cells","Grp78, Grp94, GADD153; PPG 5 mM or cystathionine 5 mM, no tunicamycin",Neither PPG nor exogenously added cystathionine induced expression
same,"scale of induction of Grp78, Grp94 and GADD153 in the presence of tunicamycin","Grp78, Grp94, GADD153; tunicamycin 5 and 10 μg/ml",Nor did either of these treatments significantly alter the scale of induction
same,"thapsagargin-induced renal morphological changes (acute tubular necrosis, histology)",[1],completely ablated
same,expression of KDEL signature proteins,[2]; PPG treatment alone,did not induce expression
same,level of induction of KDEL containing chaperones and GADD153 by tunicamycin,"[2]; tunicamycin + PPG, liver and kidney",did not appear to affect the level of induction
